28 compounds from US20100029615A1, “BENZIMIDAZOLE DERIVATIVES” (priority 2006, published 2010) can be followed below.

In the assay the target is T1, SMO (Mus musculus, UniProt P56726).
T1 construct: endogenous in cells; host or cells: C3H10T1/2 (ATCC #CCL-226)
Put plainly: Smoothened (SMO)/Sonic Hedgehog (SHh) Transient Transcriptional Activation Assay (Gli-luciferase reporter in C3H10T1/2 cells). It counts as cell-based, murine. Particulars: C3H 10T1/2, 2 μM test compound, SHh 250 ng/ml, 20 hrs, read-out: SMO CELL % INHIBITION @ 2 μM. As to the method:
As noted above, the compounds of the invention are useful as inhibitors of SMO. Methods for determining the in vitro activity of these compounds are described below: Smoothened (SMO)/Sonic Hedgehog (SHh) Transient Transcriptional Activation Assay
On Day 1,2×10^6 C3H10T1/2 cells (ATCC #CCL-226) were split and seeded in 12 mls of growth medium Basal Medium Eagle (BME, Invitrogen #21010-046) supplemented with 2 mM L-glutamine (Invitrogen #25030-081), 0.1 units/ml penicillin and 0.1 ug/ml streptomycin (Invitrogen #15140-122), and 10% Fetal Bovine Serum (FBS, Invitrogen #16140-071) in a T-75 flask (Costar #3376). They were allowed to attach for 4 hours at 37° C., 5% CO2. The cells were then transfected using Fugene 6 (Roch #11 814 443 001) in the following reaction: 48 ul Fugene 6 and 745 ul Opti-MEM (Invitrogen #31985-070) were mixed and allowed to sit at room temperature for 5 minutes. 8 ug of pGL4.14/mGli(CS) DNA (10× murine Gli response elements and minimal CS promoter) and 0.5 ug of pEGFP DNA (Clontech) were added, gently mixed and incubated at room temperature for 20 minutes. This entire transfection mix was then added to the T-75 flask containing the cells. The cells were incubated at 37 °C, 5% C02 for 18-24 hrs.
On Day 2, the transfected cells were trypsinized and seeded into white 96 well plates (Costar #3917) in 100ul/well of growth medium at a concentration of 20,000 cells/well. The cells were allowed to recover for 4 hrs before adding serum starvation medium Dulbecco's Modified Eagle Medium (DMEM, Invitrogen #21063-029) supplemented with 2 mM L-glutamine, 0.1 units/ml penicillin and 0.1 ug/ml streptomycin, and 0.5% Calf Serum (CS, Invitrogen #26170-043). The growth media was aspirated off, and the cells were rinsed with 100 ul of starvation media. 95 ul of starvation media was then added to each well. The cells were incubated for 20 hrs at 37 °C, 5% C02.
On Day 3, cells were dosed with test compounds at a final concentration ranging from 2 uM to 2 nM. Immediately after dosing cells with compounds, recombinant human sonic hedgehog (SHh, R&D Systems #1845-SH) was add to a final concentration of 250 ng/ml. A 25 ug vial of SHh was reconstituted with 250 ul PBS/0.1% BSA to give a 100 ng/ul working stock. This working stock was then diluted 1:20 in starvation media. The transfected cells were incubated with compounds and SHh for 20 hrs at 37 °C, 5% C02.
Luciferase assays were conducted on Day 4 using Dual-Glo Luciferase assay system (Promega #E2940) according to Promega's protocol. Briefly, Dual-Glo luciferase reagent was made up and 100 uls were added to each well of the 96 well plate containing media. Plates were shaken at room temperature for 10 minutes, and then read on TopCount (Perkin-Elmer). The luminescence was recorded.
On the technique in general: In a reporter assay the amount or activity of a reporter protein is the signal.

Structures are written as SMILES. Counter-ions that a name gives are not always drawn.

T1 sequence (P56726 33-793): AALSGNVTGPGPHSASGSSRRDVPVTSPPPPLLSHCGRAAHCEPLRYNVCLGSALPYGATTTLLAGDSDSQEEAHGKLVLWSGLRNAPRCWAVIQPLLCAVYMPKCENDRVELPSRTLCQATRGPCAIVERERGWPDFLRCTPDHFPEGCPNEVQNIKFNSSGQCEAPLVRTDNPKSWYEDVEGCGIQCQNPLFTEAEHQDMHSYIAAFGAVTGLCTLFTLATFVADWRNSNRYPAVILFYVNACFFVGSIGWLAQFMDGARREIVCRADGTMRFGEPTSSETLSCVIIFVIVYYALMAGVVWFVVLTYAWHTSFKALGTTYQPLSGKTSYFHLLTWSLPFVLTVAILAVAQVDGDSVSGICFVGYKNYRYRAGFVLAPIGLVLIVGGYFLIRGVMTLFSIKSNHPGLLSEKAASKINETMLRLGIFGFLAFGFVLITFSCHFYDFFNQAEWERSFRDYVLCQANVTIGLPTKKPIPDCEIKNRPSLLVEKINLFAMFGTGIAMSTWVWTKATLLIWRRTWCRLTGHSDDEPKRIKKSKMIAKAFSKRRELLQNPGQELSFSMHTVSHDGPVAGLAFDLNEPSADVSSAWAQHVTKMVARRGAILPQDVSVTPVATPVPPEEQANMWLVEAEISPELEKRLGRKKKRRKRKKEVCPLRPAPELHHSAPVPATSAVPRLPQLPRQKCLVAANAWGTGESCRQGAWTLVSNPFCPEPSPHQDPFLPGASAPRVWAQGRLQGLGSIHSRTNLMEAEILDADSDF

One may read the inhibition as the relative decrease from the control value, in per cent. As for `CN(C)c1ccc2nc(C3CCCC(NC(=O)c4ccc5c(c4)OCCO5)C3)[nH]c2c1` (stereo not shown) [Example 77, N-{3-[6-(dimethylamino)-1H-benzimidazol-2-yl]cyclohexyl}-2,3-dihydro-1,4-benzodioxine-6-carboxamide HCl], the inhibition at 2 µM worked out at 102%.

`CC(C)(C)c1ccc2nc(C3CCCC(NC(=O)c4ccc5c(c4)OCCO5)C3)[nH]c2c1` (stereo not shown) [Example 78, N-[3-(6-tert-butyl-1H-benzimidazol-2-yl)cyclohexyl]-2,3-dihydro-1,4-benzodioxine-6-carboxamide HCl]: the inhibition at 2 µM is 100%.

With `Cc1cccc2nc(C3CCCC(NC(=O)c4ccc5c(c4)OCCO5)C3)[nH]c12` (stereo not shown) [Example 79, N-[3-(7-methyl-1H-benzimidazol-2-yl)cyclohexyl]-2,3-dihydro-1,4-benzodioxine-6-carboxamide HCl], the inhibition at 2 µM amounted to 102%.

`Cc1cc2nc(C3CCCC(NC(=O)c4ccc5c(c4)OCCO5)C3)[nH]c2cc1C` (stereo not shown) [Example 80, N-[3-(5,6-dimethyl-1H-benzimidazol-2-yl)cyclohexyl]-2,3-dihydro-1,4-benzodioxine-6-carboxamide HCl]: the inhibition at 2 µM stood at 103%.

`O=C(NC1CCCC(c2nc3ccc(F)c(F)c3[nH]2)C1)c1ccc2c(c1)OCCO2` (stereo not shown) [Example 81, N-[3-(6,7-difluoro-1H-benzimidazol-2-yl)cyclohexyl]-2,3-dihydro-1,4-benzodioxine-6-carboxamide HCl]: the inhibition at 2 µM was found to be 103%.

Consider `Cc1c(Br)cc2[nH]c(C3CCCC(NC(=O)c4ccc5c(c4)OCCO5)C3)nc2c1C` (stereo not shown) [Example 82, N-[3-(6-bromo-4,5-dimethyl-1H-benzimidazol-2-yl)cyclohexyl]-2,3-dihydro-1,4-benzodioxine-6-carboxamide HCl], for which the inhibition at 2 µM worked out at 101%.

Regarding `O=C(NC1CCCC(c2nc3cc(F)c(F)cc3[nH]2)C1)c1ccc2c(c1)OCCO2` (stereo not shown) [Example 83, N-[3-(5,6-difluoro-1H-benzimidazol-2-yl)cyclohexyl]-2,3-dihydro-1,4-benzodioxine-6-carboxamide HCl], the inhibition at 2 µM is 103%.

As for `O=C(NC1CCCC(c2nc3ccc(C(F)(F)F)cc3[nH]2)C1)c1ccc2c(c1)OCCO2` (stereo not shown) [Example 84, N-{3-[6-(trifluoromethyl)-1H-benzimidazol-2-yl]cyclohexyl}-2,3-dihydro-1,4-benzodioxine-6-carboxamide-HCl], the inhibition at 2 µM was found to be 101%.

On to `O=C(NC1CCCC(c2nc3ccc(Cl)cc3[nH]2)C1)c1ccc2c(c1)OCCO2` (stereo not shown) [Example 85, N-[3-(6-chloro-1H-benzimidazol-2-yl)cyclohexyl]-2,3-dihydro-1,4-benzodioxine-6-carboxamide HCl], for which the inhibition at 2 µM came out at 103%.

For `O=C(NC1CCCC(c2nc3ccc(Br)cc3[nH]2)C1)c1ccc2c(c1)OCCO2` (stereo not shown) [Example 86, N-[3-(6-bromo-1H-benzimidazol-2-yl)cyclohexyl]-2,3-dihydro-1,4-benzodioxine-6-carboxamide HCl], the inhibition at 2 µM turned out to be 102%.

For `O=C(NC12CCCC(c3nc4ccccc4[nH]3)(C1)C2)c1ccc2c(c1)OCCO2` [Example 87, N-[5-(1H-benzimidazol-2-yl)bicyclo[3.1.1]hept-1-yl]-2,3-dihydro-1,4-benzodioxine-6-carboxamide], the inhibition at 2 µM is 91%.

In the case of `COc1ccc2[nH]c([C@H]3CCC[C@@H](NC(=O)c4ccc5c(c4)OCCO5)C3)nc2c1` [Example 88, N-[(1R,3S)-3-(5-methoxy-1H-benzimidazol-2-yl)cyclohexyl]-2,3-dihydro-1,4-benzodioxine-6-carboxamide HCl], the inhibition at 2 µM was 106%.

`O=C(CCC(=O)c1ccccc1)NC1CCCC(c2nc3ccccc3[nH]2)C1` (stereo not shown) [Example 89, N-[3-(1H-benzimidazol-2-yl)cyclohexyl]-4-oxo-4-phenylbutanamide triflouroacetate]: the inhibition at 2 µM amounted to 96%.

Turning to `O=C(NC1CCCC(c2nc3ccccc3[nH]2)C1)c1ccc(-n2ccnc2)cc1` (stereo not shown) [Example 90, N-[3-(1H-benzimidazol-2-yl)cyclohexyl]-4-(1H-imidazol-1-yl)benzamide triflouroacetate], the inhibition at 2 µM is 100%.

Regarding `O=C(NC1CCCC(c2nc3ccccc3[nH]2)C1)c1cnn(Cc2ccccc2)c1` (stereo not shown) [Example 91, N-[3-(1H-benzimidazol-2-yl)cyclohexyl]-1-benzyl-1H-pyrazole-4-carboxamide triflouroacetate], the inhibition at 2 µM is 99%.

In the case of `O=C(Cn1nc2ccccc2n1)NC1CCCC(c2nc3ccccc3[nH]2)C1` (stereo not shown) [Example 92, N-[3-(1H-benzimidazol-2-yl)cyclohexyl]-2-(2H-1,2,3-benzotriazol-2-yl)acetamide triflouroacetate], the inhibition at 2 µM was found to be 90%.

Take `Cc1ccoc1C(=O)NC1CCCC(c2nc3ccccc3[nH]2)C1` (stereo not shown) [Example 93, N-[3-(1H-benzimidazol-2-yl)cyclohexyl]-3-methyl-2-furamide triflouroacetate]: the inhibition at 2 µM was determined as 24%.

For `CN1c2ccccc2OCC1CC(=O)NC1CCCC(c2nc3ccccc3[nH]2)C1` (stereo not shown) [Example 94, N-[3-(1H-benzimidazol-2-yl)cyclohexyl]-2-(4-methyl-3,4-dihydro-2H-1,4-benzoxazin-3-yl)acetamide triflouroacetate], the inhibition at 2 µM was 96%.

In the case of `O=C(Cn1ncc2ccccc21)NC1CCCC(c2nc3ccccc3[nH]2)C1` (stereo not shown) [Example 95, N-[3-(1H-benzimidazol-2-yl)cyclohexyl]-2-(1H-indazol-1-yl)acetamide triflouroacetate], the inhibition at 2 µM stood at 20%.

Consider `COCOc1ccc(C(=O)NC2CCCC(c3nc4ccccc4[nH]3)C2)cc1` (stereo not shown) [Example 96, N-[3-(1H-benzimidazol-2-yl)cyclohexyl]-4-(methoxymeth-oxy)benzamide triflouroacetate], for which the inhibition at 2 µM turned out to be 93%.

For `CC(C)C1=NOC(C(=O)NC2CCCC(c3nc4ccccc4[nH]3)C2)C1` (stereo not shown) [Example 97, N-[3-(1H-benzimidazol-2-yl)cyclohexyl]-3-isopropyl-4,5-dihydroisoxazole-5-carboxamide triflouroacetate], the inhibition at 2 µM was determined as 83%.

On to `CCOC(=O)CCCCC(=O)NC1CCCC(c2nc3ccccc3[nH]2)C1` (stereo not shown) [Example 98, ethyl 6-{[3-(1H-benzimidazol-2-yl)cyclohexyl]amino}-6-oxohexanoate trifl;uoroacetate], for which the inhibition at 2 µM came out at 55%.

As for `CC(=O)c1c(C)[nH]c(C(=O)NC2CCCC(c3nc4ccccc4[nH]3)C2)c1C` (stereo not shown) [Example 99, 4-acetyl-N-[3-(1H-benzimidazol-2-yl)cyclohexyl]-3,5-dimethyl-1H-pyrrole-2-carboxamide triflouroacetate], the inhibition at 2 µM came out at 107%.

In the case of `COc1cc(OC)cc(C(=O)NC23CCCC(c4nc5ccccc5[nH]4)(C2)C3)c1` [Example 100, N-[5-(1H-benzimidazol-2-yl)bicyclo[3.1.1]hept-1-yl]-3,5-dimethoxybenz-amide], the inhibition at 2 µM was determined as 81%.

For the compound `O=C(NC1CCCC(c2nc3ccccc3[nH]2)C1)c1n[nH]c2ccccc12` (stereo not shown) [Example 101, N-[3-(1H-benzimidazol-2-yl)cyclohexyl]-1H-indazole-3-carboxamide triflouroacetate], the inhibition at 2 µM stood at 56%.

Take `N#CCC(=O)NC1CCCC(c2nc3ccccc3[nH]2)C1` (stereo not shown) [Example 102, N-[3-(1H-benzimidazaol-2-yl)cyclohexyl]-2-cyanoacetamide triflouroacetate]: the inhibition at 2 µM worked out at 93%.

With `COC(=O)CCCC(=O)NC1CCCC(c2nc3ccccc3[nH]2)C1` (stereo not shown) [Example 103, methyl 5-{[3-(1H-benzimidazol-2-yl)cyclohexyl]-amino}-5-oxopentanoate triflouroacetate], the inhibition at 2 µM turned out to be 94%.

Consider `O=C(COCc1ccccc1)NC1CCCC(c2nc3ccccc3[nH]2)C1` (stereo not shown) [Example 104, N-[3-(1H-benzimidazol-2-yl)cyclohexyl]-2-(benzyloxy)-acetamide triflouroacetate], for which the inhibition at 2 µM amounted to 73%.
